The supplement of paper PMC10307832

Experiments:
Assay in all cases: relative viability (nuclei count vs DMSO), 5 days (fraction); higher = more cells survive
Tozasertib + Luminespib = compound: Cc1cc(Nc2cc(N3CCN(C)CC3)nc(Sc3ccc(NC(=O)C4CC4)cc3)n2)n[nH]1 [Tozasertib] + CCNC(=O)c1noc(-c2cc(C(C)C)c(O)cc2O)c1-c1ccc(CN2CCOCC2)cc1 [Luminespib] (partner 0.01 µM)
Summary of the method: (§1)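 Relative viability divides the nuclei count in treated wells by that in vehicle wells. Lung cancer cell lines were seeded in 1536-well plates, dosed by pin tool the next day, and fixed and stained after 5 days in one step with final 0.05% Triton X-100, 1% formaldehyde and 1 ug/ml Hoechst. Dosing was a single drug or a fixed anchor-drug dose plus five library-drug doses (not always all listed) in √10 steps, and values are medians of duplicate plates imaged at 4×.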

Tozasertib + OSI-027 = compound: Cc1cc(Nc2cc(N3CCN(C)CC3)nc(Sc3ccc(NC(=O)C4CC4)cc3)n2)n[nH]1 [Tozasertib] + COc1cccc2cc(-c3nc([C@H]4CC[C@H](C(=O)O)CC4)n4ncnc(N)c34)[nH]c12 [OSI-027] (partner 0.5 µM)
Summary of the method: as §1

Tozasertib + Lapatinib = compound: Cc1cc(Nc2cc(N3CCN(C)CC3)nc(Sc3ccc(NC(=O)C4CC4)cc3)n2)n[nH]1 [Tozasertib] + CS(=O)(=O)CCNCc1ccc(-c2ccc3ncnc(Nc4ccc(OCc5cccc(F)c5)c(Cl)c4)c3c2)o1 [Lapatinib] (partner 2 µM)
Summary of the method: as §1

Tozasertib + Alpelisib = compound: Cc1cc(Nc2cc(N3CCN(C)CC3)nc(Sc3ccc(NC(=O)C4CC4)cc3)n2)n[nH]1 [Tozasertib] + Cc1nc(NC(=O)N2CCC[C@H]2C(N)=O)sc1-c1ccnc(C(C)(C)C(F)(F)F)c1 [Alpelisib] (partner 2 µM)
Summary of the method: as §1

Tozasertib + Phenformin = compound: Cc1cc(Nc2cc(N3CCN(C)CC3)nc(Sc3ccc(NC(=O)C4CC4)cc3)n2)n[nH]1 [Tozasertib] + N=C(N)NC(=N)NCCc1ccccc1 [Phenformin] (partner 250 µM)
Summary of the method: as §1

Cell Line | relative viability (Tozasertib + Luminespib; first compound 0.004 µM) | relative viability (Tozasertib + Luminespib; first compound 0.01265 µM) | relative viability (Tozasertib + Luminespib; first compound 0.04 µM) | relative viability (Tozasertib + Luminespib; first compound 0.1265 µM) | relative viability (Tozasertib + OSI-027; first compound 0.004 µM) | relative viability (Tozasertib + OSI-027; first compound 0.01265 µM) | relative viability (Tozasertib + OSI-027; first compound 0.04 µM) | relative viability (Tozasertib + OSI-027; first compound 0.1265 µM) | relative viability (Tozasertib + Lapatinib; first compound 0.004 µM) | relative viability (Tozasertib + Lapatinib; first compound 0.04 µM) | relative viability (Tozasertib + Alpelisib; first compound 0.004 µM) | relative viability (Tozasertib + Alpelisib; first compound 0.01265 µM) | relative viability (Tozasertib + Alpelisib; first compound 0.04 µM) | relative viability (Tozasertib + Phenformin; first compound 0.004 µM) | relative viability (Tozasertib + Phenformin; first compound 0.01265 µM) | relative viability (Tozasertib + Phenformin; first compound 0.04 µM) | relative viability (Tozasertib + Phenformin; first compound 0.1265 µM) | relative viability (Tozasertib + Lapatinib; first compound 0.01265 µM) | relative viability (Tozasertib + Lapatinib; first compound 0.1265 µM) | relative viability (Tozasertib + Alpelisib; first compound 0.1265 µM)
EPLC-272H | 0.267 | 0.307 | 0.197 | 0.288 | 0.289 | 0.256 | 0.288 | 0.265 | 0.958 | 0.891 | 0.845 | 0.789 | 1.11 | 0.307 | 0.337 | 0.256 | 0.275 | – | – | –
UMC-11 | 1.02 | 0.983 | – | 0.422 | 0.538 | 0.471 | 0.512 | 0.171 | 1.03 | 1.04 | 1.08 | 0.968 | 1.13 | 0.372 | 0.308 | 0.3 | 0.171 | 0.944 | 0.244 | 0.146
NCI-H1793 | 0.181 | 0.198 | 0.191 | 0.18 | 0.229 | 0.214 | 0.358 | 0.228 | 0.699 | 0.573 | 0.578 | 0.699 | 0.872 | 0.33 | 0.427 | 0.414 | 0.458 | 0.598 | 0.364 | –
NCI-H2405 | 0.673 | 0.67 | 0.58 | 0.712 | 0.616 | 0.676 | 0.642 | 0.698 | 1.05 | 0.793 | 0.723 | 0.812 | 0.778 | 0.392 | 0.402 | 0.424 | 0.408 | 0.962 | 0.705 | 0.807
NCI-H661 | 1.01 | 0.916 | 0.973 | 0.575 | 0.731 | 0.747 | 0.722 | 0.302 | 0.581 | 0.427 | 0.568 | 0.735 | 0.776 | 0.287 | 0.313 | 0.319 | 0.253 | – | 0.376 | 0.496
NCI-H1993 | 0.755 | 0.631 | 0.796 | 0.618 | 0.485 | 0.505 | 0.569 | 0.524 | 0.804 | 0.829 | 0.63 | 0.795 | 0.727 | 0.527 | 0.482 | 0.481 | 0.486 | 0.82 | 0.772 | 0.519
NCI-H322M | 0.805 | 0.996 | 0.851 | 0.564 | 0.546 | 0.502 | 0.561 | 0.412 | 0.594 | 0.614 | 0.732 | 0.749 | 0.904 | 0.798 | – | 0.799 | 0.481 | 0.538 | 0.519 | 0.848
NCI-H1651 | 0.818 | 0.918 | 1 | 0.909 | 0.888 | 0.645 | – | 0.666 | 0.973 | – | 0.922 | 1.01 | 0.886 | 0.319 | 0.339 | 0.316 | 0.267 | 0.806 | 0.392 | 1.03
